Assay results published in the CheMixHub viscosity set.

Experiment: xn = mol fraction of the nth substance listed

CC1(C)OCC(CO)O1 (stereo unspecified) + OCC(O)CO
viscosity [mPa·s], 101 kPa
Details | x1 = 0.1 | x1 = 0.2015 | x1 = 0.3 | x1 = 0.4012 | x1 = 0.499 | x1 = 0.6002 | x1 = 0.7 | x1 = 0.801 | x1 = 0.9003
298.15 K | 803.5 | 702.6 | 600.8 | 502.2 | 407.7 | 319.4 | 243.3 | 163.1 | 84.15
308.15 K | 356.9 | 310 | 262 | 212.8 | 167.1 | 129.5 | 97.75 | 69.56 | 35.83
318.15 K | 175.4 | 150 | 123.5 | 98.86 | 75.9 | 54.95 | 43.91 | 31.63 | 16.65

CC(C)=CC(=O)C=C(C)C + CCCCCOC(C)=O
298.15 K, 101 kPa
Details | viscosity [mPa·s]
x1 = 0.078 | 0.813
x1 = 0.142 | 0.834

CC(=O)CC(C)(C)O + CC(=O)CC(C)C
298.15 K, 101 kPa
Details | viscosity [mPa·s]
x2 = 0.1301 | 2.157
x2 = 0.2473 | 1.707
x2 = 0.3676 | 1.351
x2 = 0.4821 | 1.108
x2 = 0.5836 | 0.943
x2 = 0.6974 | 0.796
x2 = 0.8046 | 0.687
x2 = 0.9001 | 0.608

CCCCC + CCCCCCC
298.15 K, 101.33 kPa
Details | viscosity [mPa·s]
x1 = 0.1046 | 0.3691
x1 = 0.2024 | 0.3579
x1 = 0.3087 | 0.3325
x1 = 0.4077 | 0.3173
x1 = 0.4979 | 0.3004
x1 = 0.5999 | 0.2848
x1 = 0.6624 | 0.2762
x1 = 0.7972 | 0.254
x1 = 0.8929 | 0.242

CC1(C)OCC(CO)O1 (stereo unspecified) + OCCO
viscosity [mPa·s], 101 kPa
Details | x1 = 0.0997 | x1 = 0.2 | x1 = 0.3008 | x1 = 0.3988 | x1 = 0.5014 | x1 = 0.6 | x1 = 0.7003 | x1 = 0.8 | x1 = 0.8997
298.15 K | 15.54 | 14.27 | 12.57 | 11.4 | 10.31 | 9.722 | 9.762 | 9.801 | 9.695
308.15 K | 10.5 | 9.645 | 8.569 | 7.712 | 6.932 | 6.525 | 6.516 | 6.912 | 6.889
318.15 K | 7.537 | 6.894 | 6.139 | 5.409 | 4.898 | 4.639 | 4.882 | 5.057 | 5.085

OC1CCCCC1 + Cc1ccccc1Cl
303.15 K, 101 kPa
Details | viscosity [mPa·s]
x1 = 0.1104 | 4.861
x1 = 0.2183 | 8.854
x1 = 0.3237 | 12.93
x1 = 0.4268 | 17.06
x1 = 0.5276 | 21.22
x1 = 0.6262 | 25.36
x1 = 0.7227 | 29.4
x1 = 0.8171 | 33.34
x1 = 0.9095 | 37.22

CCOC(=O)C(C)O (stereo unspecified) + COCCOCCOCCOCCOC
101 kPa
Details | viscosity [mPa·s]
303.15 K, x1 = 0.3998 | 2.815
308.15 K, x1 = 0.6001 | 2.385
323.15 K, x1 = 0.8001 | 1.605

CS(C)=O + COC(=O)OC
308.15 K, 101 kPa
Details | viscosity [mPa·s]
x1 = 0.0596 | 0.547
x1 = 0.1027 | 0.57
x1 = 0.1913 | 0.621
x1 = 0.2791 | 0.677
x1 = 0.371 | 0.743
x1 = 0.4598 | 0.814
x1 = 0.5007 | 0.853
x1 = 0.5479 | 0.897
x1 = 0.626 | 0.983
x1 = 0.7427 | 1.137
x1 = 0.8572 | 1.327
x1 = 0.9283 | 1.47

CCCCC + CC1CCCCC1
viscosity [mPa·s], 101 kPa
Details | x2 = 0.0407 | x2 = 0.2014 | x2 = 0.2807 | x2 = 0.3471 | x2 = 0.4382 | x2 = 0.6005 | x2 = 0.681 | x2 = 0.7595 | x2 = 0.8406 | x2 = 0.9199
293.15 K | 0.2369 | 0.2738 | 0.2958 | 0.3151 | 0.3506 | 0.429 | 0.4775 | 0.5323 | 0.5947 | 0.6586
298.15 K | 0.2277 | 0.2567 | 0.2795 | 0.3014 | 0.337 | 0.4124 | 0.4571 | 0.5046 | 0.5587 | 0.6168
303.15 K | 0.1977 | 0.2381 | 0.2612 | 0.2824 | 0.3164 | 0.3885 | 0.431 | 0.4771 | 0.5299 | 0.5849

CCCCC + CCCCCCCC
Details | viscosity [mPa·s]
297.95 K, 101 kPa, x1 = 0.1048 | 0.4645
297.95 K, 101 kPa, x1 = 0.1992 | 0.4431
297.95 K, 101 kPa, x1 = 0.3044 | 0.4126
297.95 K, 101 kPa, x1 = 0.4015 | 0.3847
297.95 K, 101 kPa, x1 = 0.5066 | 0.3498
297.95 K, 101 kPa, x1 = 0.5998 | 0.3216
297.95 K, 101 kPa, x1 = 0.7095 | 0.2978
297.95 K, 101 kPa, x1 = 0.8097 | 0.2723
297.95 K, 101 kPa, x1 = 0.8946 | 0.2443
298.15 K, 101.33 kPa, x1 = 0.1059 | 0.4719
298.15 K, 101.33 kPa, x1 = 0.1973 | 0.4439
298.15 K, 101.33 kPa, x1 = 0.3019 | 0.4091
298.15 K, 101.33 kPa, x1 = 0.404 | 0.3806
298.15 K, 101.33 kPa, x1 = 0.5019 | 0.3545
298.15 K, 101.33 kPa, x1 = 0.6046 | 0.3228
298.15 K, 101.33 kPa, x1 = 0.7015 | 0.2963
298.15 K, 101.33 kPa, x1 = 0.8026 | 0.2702
298.15 K, 101.33 kPa, x1 = 0.9035 | 0.2454
313.05 K, 101 kPa, x1 = 0.1048 | 0.3939
313.05 K, 101 kPa, x1 = 0.1992 | 0.3894
313.05 K, 101 kPa, x1 = 0.3044 | 0.3676
313.05 K, 101 kPa, x1 = 0.4015 | 0.3504
313.05 K, 101 kPa, x1 = 0.5066 | 0.3205
313.05 K, 101 kPa, x1 = 0.5998 | 0.2816
